Marks after values point to notes of the source that are not given here.
Test system: TNBS-induced ulcerative colitis model mice
Assay: TNBS-induced mice ulcerative colitis model
Type: in vivo, BALB/c male mice
Design: key to Scores of gross morphological damages: 0 = no adhesion/ulcer/inflammation, 4+ = severe ulcers (+1 per cm)
Details: compound 20 mg/kg; for Score (body weight index according to the disease activity index, DAI): 0-4 points by weight decrease; for Length of the colon / Weight of the colon: 24 hours after last administration; for weight/length ratio (average) of colon: colon weight (g) / length (cm); for Ratio of weight loss: ig daily for 7 days from day of modeling, positive drug sulfasalazine 500 mg/kg, 10 mice per group
Procedure: BALB/c male mice (each 18-22 g) of SPF level were purchased from Shanghai Slack Laboratory Animal Co., Ltd. and were used in experiments after adaptive feeding for 7 days.
BALB/c male mice were kept in an animal cage (daylight and darkness of 12 hours, respectively) at a temperature of 20-25° C. and relative humidity of 50-60%, free access to food and water.
Mice were randomly divided into normal control group, trinitrobenzenesulfonic acid (TNBS) model group, drug treatment group and positive drug control group (sulfasalazine 500 mg/kg).
All of the mice in model group and administration group were shaved in the abdomen (area 2×2 cm) and sensitized with 1% TNBS (dissolved in 50% ethanol). On the 7th day, the mice were fasted, but not water. After 24 hours, the mice were anesthetized through intraperitoneal injection of 0.1 ml of 10% chloral hydrate and 2% TNBS was used for lavation to establish a mouse model of ulcerative colitis. A gavage needle for rat was inserted into the colon of a mouse, the tip of the needle was about 3˜3.5 cm away from the anus, and 0.1 ml of modeling solution (5% TNBS and deionized water were mixed at a volume ratio of 4:1, and the obtained solution was mixed with absolute ethanol at a volume ratio of 1:1, so as to obtain the modeling solution) was injected. The mice were put back into the cage and wake up naturally. The mice in the normal control group were injected with 0.12 ml of solvent (50% ethanol solution) by the same manner.
Administration was started on the day of modeling (using 0.5% sodium carboxymethylcellulose, CMC-Na) for 7 consecutive days.
At 24 hours after the last administration, the mice were sacrificed by cervical dislocation, the peritoneum was cut open, and the whole colon was taken. The intestine was cut longitudinally along the mesenteric margin, rinsed with ice physiological saline, placed on ice, and the pathological changes of the colon were observed. The fat and mesentery were removed, the water was blotted with filter paper, the weight of the colon was weighed and the length was measured. The colon was fixed in 4% formaldehyde for more than 24 hours, dehydrated, paraffin-embedded and H&E stained, and the pathological sections were observed.
The mice were observed and recorded daily for mental state, fur color, and activities. The mice was weighed daily and observed for the stool traits. The body weight index according to the disease activity index (DAI) is as follows:
After the colon of a mouse was removed, the weight of the colon was measured with a precision electronic balance, the length was measured with a vernier caliper, and the weight/length ratio of the colon was calculated.
The criteria for scores were: no adhesion, no ulcer, no inflammation, 0 points; mild adhesion, local congestion, no ulcer, 1 point; severe adhesion, 1 ulcer (area less than 1 cm), no obvious inflammation, 2 points; more than 1 ulcers (area less than 1 cm) with inflammation, 3 points; 2 severe ulcers (area greater than 1 cm) with inflammation, 4 points; and 1 point for each 1 cm increase in ulcer area.
Pathological changes of colon tissue were observed under light microscope, and the scores were recorded. The criteria for scores are as follows:
1) Epithelial cells: normal morphology, 0 points; loss of goblet cells, 1 point; large loss of goblet cells, 2 points; loss of crypt cells, 3 points; large loss of crypt cells, 4 points.
2) Infiltration of inflammatory cells: no infiltration, 0 points; infiltration in the basal layer of the crypt, 1 point; infiltration to the muscular layer of the mucosa, 2 points; infiltration to the muscular layer of the mucosa with mucosal thickening and obvious edema, 3 points; infiltration to the submucosal layer, 4 points.
Data were expressed as […] (mean±S.E.M.), data were analyzed using SPSS statistical software, and one-way ANOVA and Tukey's HSD post hoc test were used for comparison between groups. p<0.05 was considered statistically significant.

[1] = ig 7 days, sulfasalazine 500 mg/kg

SMILES	Score (body weight index according to the disease activity index, DAI) [1]	Length of the colon [1]	Weight of the colon [1]	Histopathology scores (H&E colon sections, epithelial cells and inflammatory cell infiltration points, ig 7 days, sulfasalazine 500 mg/kg)	Scores of gross morphological damages (colon adhesion, ulceration, inflammation points, ig 7 days, sulfasalazine 500 mg/kg)	weight/length ratio (average) of colon [1]	Ratio of weight loss
O=C(O)c1ccccc1/C=N/Nc1nc(-c2cc(Cl)ccc2Cl)cs1 [Compound 55, (E)-2-((2-(4-(2,5-dichlorophenyl)thiazol-2-yl)hydrazono)methyl)benzoic Acid]	1	5.675 ± 0.222 cm	0.148 ± 0.033 g	1.68 ± 0.32	1.99 ± 0.52	0.026#	2.74 ± 4.61
O=C(O)c1cc(C(F)(F)F)ccc1/C=N/Nc1nc(-c2ccccc2Cl)cs1 [Compound 8-1]	1	–	–	–	–	–	3.72 ± 1.60
Cc1sc(N(C)/N=C/c2ccccc2C(=O)O)nc1-c1ccccc1 [Compound 12, (E)-5-methyl-4-phenyl-2-[11-methyl-2-(2-carboxybenzylidene)hydrazino]thiazole]	1	5.075 ± 0.468 cm	0.154 ± 0.012 g	–	–	0.030#	2.33 ± 2.99
